Data set [1] concerns Drosophila stem cell tumors. Briefly: Drosophila screen (stem cell / intestinal tumors). In kind it is in vivo.
Description: (§2) We tested 10 reported Arf1 inhibitors (Bill et al., 2011; Boal et al., 2010; Feng et al., 2004; Newton et al., 2006; Ohashi et al., 2012; Sáenz et al., 2009; Sorieul et al., 2011; Viaud et al., 2007), including brefeldin A (BFA), Golgicide A (GCA), LM11, Secin16, Secin H3, Secin B7, Exo1, Exo2, LG8, and LG18, on Drosophila stem cell tumors and normal human bone marrow hematopoietic stem cells (HSCs).
The subject of another data set is tumor cells. The experiment in a line: Tumor cytotoxicity experiments in vitro (all lines, general statements). In kind it is cell-based. To be noted: HT29, LoVo, Huh7, H460, A549; FIG. 2-7. An excerpt: (§1) In different tumor cytotoxicity experiments in vitro (FIG. 2-FIG. 7), including colorectal cancer cell lines HT29 and LoVo cells, liver cancer cell Huh7, lung cancer cells H460 and A549, the arf1 inhibitor could all inhibit tumor cell growth (FIG. 2-FIG. 6), and there was a dose-dependent manner (FIG. 7).

A further data set deals with mice. Briefly: Toxicity in mice, oral gavage. Type of data set: in vivo.
The test system of data set [2] is normal human bone marrow hematopoietic stem cells (HSCs). Briefly: Toxicity on normal hematopoietic stem cells.
Description: as §2
Data set [3] deals with liver tumors in MYC-ON mice. Briefly: MYC-ON liver tumor model. In kind it is in vivo. The conditions noted are these: gavage, 5 per week for 4 weeks, analyzed 10 weeks later. An excerpt: We used the Tet system to generate transgenic mice conditionally expressing the myc pro-oncogene in hepatocytes, […] myc/lap TTA (lt2-myc) (shachaf et al., 2004). We crossed tre-myc mice with a transgenic line, lap TTA. in which the liver activator protein (LAP) promoter drives the expression of tetracycline trans-activator protein (TTA) in hepatocytes. We confirmed this by discontinuing the feeding of doxycycline (myc-ON) activated myc transgene expression in 3-week-old mice. Subsequently. all transgenic mice overexpressing myc succumbed to liver tumors with a mean latency to tumor onset of 12 weeks, as previously reported (shachaf et al., 2004). In this lap TTA/tet-off myc conditional transgenic mouse model, myc overexpression in adult mice reproducibly induces liver cancer, similar to hepatocellular carcinoma and/or hepatoblastoma. The transgenic tumor invades the entire liver locally and is frequently associated with malignant peritoneal effusions that spread to the thoracic cavity by metastasis and invade the lung parenchyma.
For the mouse liver tumor model, mating cages and weaning cages were administrated by a grain based rodent diet (Bio-Serv. Cat #14-727-450) containing 200 mg/kg doxycycline, and the mice were induced tumors at 6 weeks of age, by changing to a normal diet. Mice were divided into three groups, control, Du 101 treated and du102 treated. The control group was given 100 by gavage using a feeding tube 100 μl/10 g body weight (BW) 20% DMSO+80% corn oil. Du 101 treated groups were treated with 25 mg/ml Du 101. The stock solution was diluted 1:4 with corn oil to make the working solution. Dul02 treatment groups were treated with 25 mg/ml du102 stock solution diluted 1:4 with corn oil to make working solutions. The mixed working solution was administered to mice by gavage using a feeding tube. Starting from the second week of myc-0n, 5 injections per week ([…]) were given for 4 weeks, mice were monitored every 2 days, and 10 weeks later mice were euthanized and analyzed for tumor growth.
For the myc-on liver tumor model, antibodies were i.p. Mg/kg) was injected once a week for 5 consecutive weeks, the first Doxycycline was discontinued weekly after injection. Antibodies used to treat mice were as follows: anti-CD4 (clone GK1.5, BioXcell, Cat #BE0003-1), anti-CD8 a (clone 2.43, BioXcell, Cat #BE0061) Or […] rat IgG (bioxcell, cat #be0094) isotype control antibody. From the second week of myc-on initiation lasted for 4 weeks, Du 102 and DMSO were administered by gavage needle as described above, mice were monitored every 2 days, and 10 weeks later mice were euthanized and analyzed for tumor growth.
For the myc-on liver tumor model, antibodies were i.p. Injection once a week for 5 weeks, and doxycycline was discontinued weekly after the first injection. Antibodies used to treat mice were as follows: 100 ug/mouse Armenian hamster anti mouse PD1 (J43, bioxcell, cat #be0033-2) and 100 ug/mouse Armenian hamster isotype IgG (bioxcell. cat #bp0091) was used as controls. For 4 weeks from the second week of myc-on, Du 102 and DMSO were administered by gavage needle as described above, mice were monitored every 2 days. and 10 weeks later mice were euthanized and analyzed for tumor growth. Coadministration of anti-PD-1 antibodies may allow the use of lower, less toxic doses of du102, thus avoiding known side effects.

Another data set addresses T1, Arf1 (Homo sapiens, UniProt P84077).
T1 construct: Active Arf1 was detected by using The Thermo Scientific Pierce Active Arf1 Pull-Down and Detection Kit (Cat #16121) with liver cancer Huh-7 cell lysate; endogenous in cells; host or cells: Huh-7 liver cancer cells (lysate)
The experiment in a line: Active Arf1 Pull-Down and Detection Kit (GTP-bound Arf1). In kind it is biochemical. The conditions noted are these: liver cancer Huh-7 cell lysate; FIG. 1. An excerpt:
Active Arf1 was detected by using The Thermo Scientific Pierce Active Arf1 Pull-Down and Detection Kit (Cat #16121) with liver cancer Huh-7 cell lysate. It is a complete kit for selective enrichment and detection of GTP-bound Arf1 GTPase through specific protein interaction with the GGA3 protein-binding domain (FIG. 1).

Another data set has as its system liver cancer cell Huh7. The experiment in a line: In vitro cell line screening, Huh7. In kind it is cell-based.
Description: as §1

Data set [4] concerns colorectal cancer cell line LoVo. Briefly: In vitro cell line screening, LoVo. In kind it is cell-based.
Description: as §1

The subject of the next data set is lung cancer cells H460. The experiment in a line: In vitro cell line screening, H460. In kind it is cell-based.
Description: as §1

The next data set deals with lung cancer cells A549. Briefly: In vitro cell line screening, A549. In kind it is cell-based.
Description: as §1

The test system of data set [5] is colorectal cancer cell line HT29. Briefly: In vitro cell line screening, HT29. In kind it is cell-based.
Description: as §1

T1 sequence (P84077 whole entry): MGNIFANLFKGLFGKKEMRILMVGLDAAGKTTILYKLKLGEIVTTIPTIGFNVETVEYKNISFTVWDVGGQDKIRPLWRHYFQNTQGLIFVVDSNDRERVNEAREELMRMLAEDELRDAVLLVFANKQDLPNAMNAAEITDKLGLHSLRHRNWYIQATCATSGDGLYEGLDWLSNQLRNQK

Regarding `C(=N\Nc1ncnc2sc3c(c12)CCCC3)/c1ccc2[nH]ccc2c1` [Du 101], in data set [1] (Drosophila screen, FIG. 8), the “in vivo tumor suppressive effects” value is given as “good in vivo tumor suppressive effects”. In [1] (in vivo), the “killing Drosophila stem cell tumors” value is “effective”. Besides, the “tumor suppressive / inhibitory effect on tumor cells” value with tumor cells is reported as “Some Tumor Suppressive Effect”. Moreover, the toxic effects result is recorded as “induced toxic effects” in the data set with mice (oral gavage for 60 consecutive days, FIG. 10) and “no toxic effects were observed” in the data set on mice (up to 50 mg/kg by oral gavage for 21 consecutive days, FIG. 9). Besides, the “toxicity (killing normal HSCs)” value in data set [2] was “relatively low toxicity”. Further, in data set [3], the liver tumor numbers was 44.7. For the same compound, the “inhibition of arf1 activation” value against Arf1 is reported as “potent inhibitors”.

Turning to `Cc1ccc(/C=C/Cc2cccc3c2C2=C(CCCC2)C3)cc1C` [compound 104], the tumor suppressive effect result (with liver cancer cell Huh7; in data set [4]; in the data set on lung cancer cells H460; in the data set with lung cancer cells A549; in data set [5]) was “effective tumor suppressive effects” each time.

Consider `C1=Cc2cc(/C=C/Cc3cccc4c3C3=C(CCCC3)C4)ccc2C1` [compound 107], for which the tumor suppressive effect result (with liver cancer cell Huh7; in data set [4]; with lung cancer cells H460; in the data set on lung cancer cells A549; in [5]) was “effective tumor suppressive effects” each time.

For the compound `C(=C\c1ccccc1)/Cc1cccc2c1C1=C(CCCCCC1)C2` [compound 109], the tumor suppressive effect result (in the data set with liver cancer cell Huh7; in [4]; in the data set with lung cancer cells H460; in the data set with lung cancer cells A549; in data set [5]) was “effective tumor suppressive effects” in each case.

The values are drawn from patent US20240382487A1, “NOVEL COPI/ARF1-LIPOLYSIS PATHWAY INHIBITOR AND COMPOUND FOR ERADICATING CANCER STEM CELLS AND INDUCING DAMP-MEDIATED ANTI-TUMOR IMMUNE RESPONSE” (FUDAN UNIVERSITY, priority 2020, published 2024).
